This passage reports IC50 results from BindingDB's records for doi:10.1021/jm300847w (Amgen, 2012).

A word on the IC50: it is the concentration that gives 50% inhibition. Read a low IC50 as greater potency in that assay.

The structures appear in SMILES notation.

The test in a line: Inhibition of PI3Kdelta in B-cells by proliferation assay.

Turning to `C[C@H](Nc1ncnc2nc[nH]c12)c1cc2cccc(Cl)c2nc1-c1cscn1`, the IC50 worked out at 0.5 nM.
For `Cc1cccc2nc(-c3ccccc3Cl)c(Cn3nc(C#N)c4c(N)ncnc43)nc12` the value was 2 nM.
